Earlier results on 1 molecule are cited in patent US20250177267A1, “A CLEANSING COMPOSITION” (Conopco, Inc., d/b/a UNILEVER, priority 2022, published 2025).

In general, pKa refers to the pH at which an ionisable group is half protonated.

For the data set the following is noted: prior art acids with pKa greater than 4.5.

Take `CCCCCC(=O)O` [hexanoic acid]: the pKa was 4.72.
